Assays:
[1] = test system: melanoma SkMel37 cells; test: AlamarBlue cell viability with ZIP synergy scoring (SynergyFinder 3.0), SkMel37; type: cell-based, human; conditions: single agent; 5 days; FIG. 1
Protocol: A human melanoma cell line with mutations in BRAF (BRAF^V600E) (SkMel37) was used. Cells were plated in 96 well plates and treated on the following day with increasing concentrations of dabrafenib and Omomyc, alone or in combination. After 5 days of treatment, media was removed and AlamarBlue™ Cell Viability Reagent was added to each well, incubated for 3 hours until metabolized, and fluorescence was read with a microplate reader using an excitation between 530-560 and an emission at 590 nm.
Synergy was evaluated using SynergyFinder 3.0 web application derived from lanevsky A et al. Nucleic Acids Res. 2022; 50(W1):W739-W743.
Synergy scores can be interpreted as the average excess response due to drug interactions. Synergy scores close to 0 give limited confidence in synergy or antagonism. So, when the synergy scores are: less than −10, the interaction between two drugs is likely to be antagonistic. From −10 to 10, the interaction between two drugs is likely to be additive. Greater than 10, the interaction between two drugs is likely to be synergistic.

[2] = test system: late-stage melanoma; conditions: cited from earlier work
[3] = test system: wild type and mutant BRAF metastatic melanoma; conditions: cited from earlier work
[4] = test system: mutant BRAF; conditions: cited from earlier work

SMILES: CC(C)(C)c1nc(-c2cccc(NS(=O)(=O)c3c(F)cccc3F)c2F)c(-c2ccnc(N)n2)s1 [dabrafenib]
- reduction of viability of the cells [1]: significantly reduces the viability of the cells
- tumors that develop resistance to the treatment [2]: 20%

SMILES: CNC(=O)c1cc(Oc2ccc(NC(=O)Nc3ccc(Cl)c(C(F)(F)F)c3)cc2)ccn1 [sorafenib]
- off-target side-effects ([3]; human, in vivo): intolerable off-target side-effects
- clinical activity ([3]; monotherapy or in combination with dacarbazine): failed to demonstrate any activity
- selectivity for mutant BRAF [4]: unable to selectively target mutant BRAF

SMILES: CCCS(=O)(=O)Nc1ccc(F)c(C(=O)c2c[nH]c3ncc(-c4ccc(Cl)cc4)cc23)c1F [vemurafenib]
- tumors that develop resistance to the treatment [2]: 20%

— patent US20260345728A1, “COMBINATION THERAPY WITH BRAF INHIBITORS FOR THE TREATMENT OF CANCER” (FUNDACIÓ PRIVADA INSTITUT D'INVESTIGACIÓ ONCOLÒGICA DE VALL …, priority 2023, published 2026)
